Laboratory results: ChEMBL document CHEMBL5608229, “Innovative Multistage ML-QSAR Models for Malaria: From Data to Discovery” (ACS Med Chem Lett, 2024)

Columns and labels:
Plasmodium falciparum [1] = experiment: Antiplasmodial activity against […] Plasmodium falciparum NF54 assessed as parasite growth inhibition at 5 uM incubated for 48 hrs by luciferase based analysis relative to control; type: functional
[2] = Cytotoxicity against human HepG2 cells incubated for 72 hrs by MTT assay; type: toxicity, cell-based
Plasmodium falciparum [3] = experiment: Antiplasmodial activity against asexual blood-stage CQ-sensitive Plasmodium falciparum 3D7 infected in RBC assessed as parasite growth reduction incubated for 72 hrs by SybrGreen dye based analysis; type: functional, organism-based; conditions: 3D7, Erythrocyte
[4] = Cytotoxicity against African green monkey COS-7 cells incubated for 72 hrs by MTT assay; type: toxicity, cell-based; conditions: chlorocebus aethiops
Plasmodium berghei [5] = experiment: Antiplasmodial activity against […] Plasmodium berghei infected in mouse model assessed as parasite growth inhibition at 10 uM pre-infected mouse with parasite followed by blood collection from mouse and subsequent addition of compound in blood measured after 24 hrs by nano-luciferase based analysis relative to control; type: functional; conditions: read-out: INH
Plasmodium falciparum [6] = experiment: Antiplasmodial activity against asexual blood-stage CQ-sensitive Plasmodium falciparum 3D7 infected in RBC assessed as parasite growth inhibition at 5 uM incubated for 72 hrs by SybrGreen dye based analysis relative to control; type: functional; conditions: 3D7, Erythrocyte
Plasmodium falciparum [7] = experiment: Antiplasmodial activity against asexual blood-stage multidrug-resistant Plasmodium falciparum Dd2 infected in RBC assessed as parasite growth reduction incubated for 72 hrs by SybrGreen dye based analysis; type: functional, organism-based; conditions: Dd2, Erythrocyte
[8] = Selectivity index, ratio of CC50 for African green monkey COS-7 cells to EC50 for asexual blood-stage CQ-sensitive Plasmodium falciparum 3D7 infected in RBC; type: toxicity; conditions: read-out: Ratio CC50/EC50
[9] = Selectivity index, ratio of CC50 for human HepG2 cells to EC50 for asexual blood-stage chloroquine-sensitive Plasmodium falciparum 3D7 infected in RBC
Plasmodium falciparum [10] = experiment: Antiplasmodial activity against asexual blood-stage multidrug-resistant Plasmodium falciparum Dd2 infected in RBC assessed as parasite growth inhibition at 5 uM incubated for 72 hrs by SybrGreen dye based analysis relative to control; type: functional; conditions: Dd2, Erythrocyte
Plasmodium berghei [11] = experiment: Antiplasmodial activity against asexual liver schizonts-stage Plasmodium berghei infected in human Huh-7 cells assessed as parasite growth inhibition at 10 uM pretreated parasite with compound for 1 hr followed by parasitic infection in cells for 46 hrs by bioluminescence assay relative to control; type: functional

| SMILES | inhibition at 5 µM (Plasmodium falciparum [1]) [%] | CC50 at 72 h [2] [µM] | EC50 (Plasmodium falciparum [3]) [µM] | CC50 at 72 h [4] [µM] | percent ookinete growth inhibition (ex vivo) at 10 µM (Plasmodium berghei [5]) [%] | inhibition at 5 µM (Plasmodium falciparum [6]) [%] | EC50 (Plasmodium falciparum [7]) [µM] | selectivity ratio [8] | selectivity ratio [9] | inhibition at 5 µM (Plasmodium falciparum [10]) [%] | inhibition at 10 µM (Plasmodium berghei [11]) [%] |
| --- | --- | --- | --- | --- | --- | --- | --- | --- | --- | --- | --- |
| Clc1ccc(-c2nc(Nc3ccc(I)cc3)c3ccccc3n2)cc1 | 6 | 34.8 | > 10 | 51.5 | 44.7 |  |  |  |  |  |  |
| CN(C)CCCN(CCCN(C)C)Cc1cccc2ccccc12 | 33 | > 100 | 5.46 | > 100 | 3.26 | > 50 | 2.64 | > 18 | > 18 | > 50 | 0 |
| CCc1ccc(C2CC(=O)C3=C(C2)NC(C)=C(C(=O)OCCc2ccccc2)C3c2ccncc2)cc1 (configuration not stated) | 14 | 54.4 | 13.5 | 125 | 11 |  |  | 9 | 4 |  | 92.2 |
| c1ccc(CCN2CCC(NC34CC5CC(CC(C5)C3)C4)CC2)cc1 | 86 | 38.1 | 1.78 | 48.3 | 16 | > 90 | 0.43 | 27 | 21 | > 90 | 0 |
| COc1cc2nnc(NCC3(N(C)C)CCCCC3)nc2cc1OC | 94 | 93.1 | 0.65 | 51 | 65.3 | > 50 | 2.65 | 78 | 142 | > 50 | 0 |
| Oc1c(CN2CCCCC2)cc(CN2CCCCC2)nc1-c1ccccc1 | 51 | > 100 | 1.55 | > 100 | 0 | > 50 | 1.65 | > 64 | > 64 | > 50 | 0 |
| COc1cc2nc(NCCc3nc(=O)c4c(C)c(C)sc4[nH]3)nc(N)c2cc1OC | 94 | 13.6 | 1.38 | 12.3 | 65 | ≥ 50 | 3.67 | 9 | 9.9 | ≥ 50 | 90.3 |
| C=CCc1cc(CN2CCC3(CC2)CN(C)CCN3C)ccc1O | 51 | > 100 | 1.49 | > 100 | 5.43 | > 50 | 2.59 | > 67 | > 67 | > 50 | 0 |
| c1ccc2c(CCNC34CC5CC(CC(C5)C3)C4)c[nH]c2c1 | 12 | 53.1 | 11.8 | 77.3 |  |  |  | 7 | 4.5 |  | 0 |
| c1ccc(C23CN4CCN(CC(C4)C2NCc2ccc4c(c2)OCCO4)C3)cc1 (configuration not stated) | 6 | > 100 | > 10 | > 100 | 0 |  |  |  |  |  | 0 |
| COCCCNCCCCOc1ccc2ccccc2c1Br | 51.3 | 10.4 | 3.04 | 11 | 66.1 | ≥ 50 | 1.12 | 2.7 | 3.4 | ≥ 50 | 49.4 |
| Cc1ccc(Nc2nc(-c3ccccc3Cl)nc3ccccc23)cc1 | 1 | 33.2 | > 10 | 42.8 | 45.6 |  |  |  |  |  |  |
| c1ccc2c(CCNC3CC4CCC3C4)c[nH]c2c1 (configuration not stated) | 11.5 | > 100 | > 10 | > 100 |  |  |  |  |  |  | 0 |
| COc1ccc(CN2CCCC(CO)(Cc3ccccc3)C2)c(C)c1C (configuration not stated) | 13.5 | 44.1 | > 10 | 50.4 | 42.7 |  |  |  |  |  | 73.9 |
| CCCOc1c(Br)cc(C2C3=C(CCCC3=O)NC3=C2C(=O)CCC3)cc1OC | 9.5 | 30.5 | > 10 | 56.4 | 56.8 |  |  |  |  |  | 6.96 |
| c1ccc(C23CN4CCN(CC(C4)C2NCc2nc4ccccc4[nH]2)C3)cc1 (configuration not stated) | 20 | > 100 | > 10 | > 100 | 56 |  |  |  |  |  | 0 |
| C[C@H]1[C@H](OC(=O)CCC(=O)O)O[C@@H]2O[C@@]3(C)CC[C@H]4[C@H](C)CC[C@@H]1[C@@]24OO3 [ARTESUNATE] |  |  | 0.002 |  |  |  | 0.002 |  |  |  |  |
| CCN(CC)CCCC(C)Nc1ccnc2cc(Cl)ccc12 (configuration not stated) [CHLOROQUINE] |  |  | 0.008 |  |  |  | 0.055 |  |  |  |  |
| CCc1nc(N)nc(N)c1-c1ccc(Cl)cc1 [PYRIMETHAMINE] |  |  | 0.039 |  |  |  | 6.01 |  |  |  |  |
